US12077503B2, “Substituted cyclic amides and their use as herbicides” (FMC CORPORATION, priority 2015, dated 2024)

Experiments:
Format in all cases: in vivo
[1] = system: barnyardgrass (Echinochloa crus-galli); experiment: Test A postemergence; details: Echinochloa crus-galli, post-emergence, 240 h; for pest or weed control at 125 g/ha: 125 g ai/ha, postemergence, visual injury vs untreated controls after approx. 10 d, 0 = no effect, 100 = complete control, read-out: Barnyardgrass plant response rating (0 to 100 scale); for pest or weed control at 31 g/ha: Postemergence, 31 g ai/ha, visual injury after approx. 10 d, 0 to 100 scale, 0 no effect, 100 complete control, read-out: Plant response rating, Barnyardgrass
Summary of the method: (§1)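 Visual injury, scored on a 0–100 scale relative to untreated controls, was recorded about 10 d after application. Treatments were a preemergence soil spray over planted seeds or a postemergence spray on plants at the one- to two-leaf stage, 2 to 10 cm tall, all in loam soil–sand blend in the greenhouse.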

[2] = system: Kochia (Kochia scoparia); experiment: Test A postemergence; details: Bassia scoparia, post-emergence, 240 h; for pest or weed control at 125 g/ha: 125 g ai/ha, postemergence, visual injury vs untreated controls after approx. 10 d, 0 = no effect, 100 = complete control, read-out: Kochia plant response rating (0 to 100 scale); for pest or weed control at 31 g/ha: Postemergence, 31 g ai/ha, visual injury after approx. 10 d, 0 to 100 scale, 0 no effect, 100 complete control, read-out: Plant response rating, Kochia
Summary of the method: as §1

[3] = system: Galium (catchweed bedstraw, Galium aparine); experiment: Test A postemergence; details: Galium, post-emergence, 240 h; for pest or weed control at 125 g/ha: 125 g ai/ha, postemergence, visual injury vs untreated controls after approx. 10 d, 0 = no effect, 100 = complete control, read-out: Galium plant response rating (0 to 100 scale); for pest or weed control at 31 g/ha: Postemergence, 31 g ai/ha, visual injury after approx. 10 d, 0 to 100 scale, 0 no effect, 100 complete control, read-out: Plant response rating, Galium
Summary of the method: as §1

[4] = system: wheat (Triticum aestivum); experiment: Test A postemergence; details: Triticum aestivum, post-emergence, 240 h; for plant injury at 125 g/ha: 125 g ai/ha, postemergence, visual injury vs untreated controls after approx. 10 d, 0 = no effect, 100 = complete control, read-out: Wheat plant response rating (0 to 100 scale)
Summary of the method: as §1

[5] = system: blackgrass (Alopecurus myosuroides); experiment: Test A postemergence; details: Alopecurus myosuroides, post-emergence, 240 h; for pest or weed control at 125 g/ha: 125 g ai/ha, postemergence, visual injury vs untreated controls after approx. 10 d, 0 = no effect, 100 = complete control, read-out: Blackgrass plant response rating (0 to 100 scale); for pest or weed control at 31 g/ha: Postemergence, 31 g ai/ha, visual injury after approx. 10 d, 0 to 100 scale, 0 no effect, 100 complete control, read-out: Plant response rating, Blackgrass
Summary of the method: as §1

[6] = system: ragweed (common ragweed, Ambrosia elatior); experiment: Test A postemergence; details: Ambrosia artemisiifolia, post-emergence, 240 h; for pest or weed control at 125 g/ha: 125 g ai/ha, postemergence, visual injury vs untreated controls after approx. 10 d, 0 = no effect, 100 = complete control, read-out: Ragweed plant response rating (0 to 100 scale)
Summary of the method: as §1

[7] = system: pigweed (Amaranthus retroflexus); experiment: Test A postemergence; details: Amaranthus retroflexus, post-emergence, 240 h; for pest or weed control at 125 g/ha: 125 g ai/ha, postemergence, visual injury vs untreated controls after approx. 10 d, 0 = no effect, 100 = complete control, read-out: Pigweed plant response rating (0 to 100 scale)
Summary of the method: as §1

[8] = system: corn (Zea mays); experiment: Test A postemergence; details: Zea mays, post-emergence, 240 h; for plant injury at 125 g/ha: 125 g ai/ha, postemergence, visual injury vs untreated controls after approx. 10 d, 0 = no effect, 100 = complete control, read-out: Corn plant response rating (0 to 100 scale); for Corn plant response rating (crop injury, 0 = no effect, 100 = complete kill) at 31 g/ha: Postemergence, 31 g ai/ha, visual injury after approx. 10 d, 0 to 100 scale, 100 complete control
Summary of the method: as §1

[9] = system: ryegrass, Italian (Italian ryegrass, Lolium multiflorum); experiment: Test A postemergence; details: Lolium multiflorum, post-emergence, 240 h; for pest or weed control at 125 g/ha: 125 g ai/ha, postemergence, visual injury vs untreated controls after approx. 10 d, 0 = no effect, 100 = complete control, read-out: Ryegrass, Italian plant response rating (0 to 100 scale)
Summary of the method: as §1

[10] = system: giant foxtail (Setaria faberii); experiment: Test A postemergence; details: Setaria faberi, post-emergence, 240 h; for pest or weed control at 125 g/ha: 125 g ai/ha, postemergence, visual injury vs untreated controls after approx. 10 d, 0 = no effect, 100 = complete control, read-out: Foxtail, Giant plant response rating (0 to 100 scale); for pest or weed control at 31 g/ha: Postemergence, 31 g ai/ha, visual injury after approx. 10 d, 0 to 100 scale, 0 no effect, 100 complete control, read-out: Plant response rating, Foxtail, Giant
Summary of the method: as §1

[11] = system: rice (Oryra sativa); experiment: Test B flooded paddy test; details: Oryza sativa, 250 g ai/ha, Flood; 0 to 100 scale where 0 is no effect and 100 is complete control; read-out: Rice plant response rating
Summary of the method: (§2)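 Compound goes directly into floodwater once pots are flooded 3 cm above soil, targeting plants at two leaves; the water depth is then held for the test duration. Plants sit 13–15 d in a greenhouse and are rated visually, 100 denoting complete control.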

[12] = system: barnyardgrass (Echinochloa crus-galli); experiment: Test B flooded paddy test; details: Echinochloa crus-galli, 250 g ai/ha, Flood; 0 to 100 scale where 0 is no effect and 100 is complete control; read-out: Barnyardgrass plant response rating
Summary of the method: as §2

[13] = system: ducksalad (Heteranthera limosa); experiment: Test B flooded paddy test; details: Heteranthera limosa, 250 g ai/ha, Flood; 0 to 100 scale where 0 is no effect and 100 is complete control; read-out: Ducksalad plant response rating
Summary of the method: as §2

[14] = system: sedge, umbrella (small-flower umbrella sedge, Cyperus difformis); experiment: Test B flooded paddy test; details: Cyperus difformis, 250 g ai/ha, Flood; 0 to 100 scale where 0 is no effect and 100 is complete control; read-out: Sedge, Umbrella plant response rating
Summary of the method: as §2

[15] = system: barnyardgrass (Echinochloa crus-galli); experiment: Test A preemergence; details: Echinochloa crus-galli, pre-emergence, 240 h, 0 to 100 scale where 0 is no effect and 100 is complete control, read-out: Barnyardgrass plant response rating; for pest or weed control at 31 g/ha: 31 g ai/ha, Preemergence; for pest or weed control at 125 g/ha: 125 g ai/ha, preemergence, approx. 10 d
Summary of the method: as §1

[16] = system: Kochia (Kochia scoparia); experiment: Test A preemergence; details: Bassia scoparia, pre-emergence, 240 h, 0 to 100 scale where 0 is no effect and 100 is complete control, read-out: Kochia plant response rating; for pest or weed control at 31 g/ha: 31 g ai/ha, Preemergence; for pest or weed control at 125 g/ha: 125 g ai/ha, preemergence, approx. 10 d
Summary of the method: as §1

[17] = system: ragweed (common ragweed, Ambrosia elatior); experiment: Test A preemergence; details: Ambrosia artemisiifolia, pre-emergence, 240 h, 0 to 100 scale where 0 is no effect and 100 is complete control, read-out: Ragweed plant response rating; for pest or weed control at 31 g/ha: 31 g ai/ha, Preemergence; for pest or weed control at 125 g/ha: 125 g ai/ha, preemergence, approx. 10 d
Summary of the method: as §1

[18] = system: pigweed (Amaranthus retroflexus); experiment: Test A preemergence; details: Amaranthus retroflexus, pre-emergence, 240 h, 0 to 100 scale where 0 is no effect and 100 is complete control, read-out: Pigweed plant response rating; for pest or weed control at 31 g/ha: 31 g ai/ha, Preemergence; for pest or weed control at 125 g/ha: 125 g ai/ha, preemergence, approx. 10 d
[19] = system: ryegrass, Italian (Italian ryegrass, Lolium multiflorum); experiment: Test A preemergence; details: Lolium multiflorum, pre-emergence, 240 h, 0 to 100 scale where 0 is no effect and 100 is complete control, read-out: Ryegrass, Italian plant response rating; for pest or weed control at 31 g/ha: 31 g ai/ha, Preemergence; for pest or weed control at 125 g/ha: 125 g ai/ha, preemergence, approx. 10 d
Summary of the method: as §1

[20] = system: giant foxtail (Setaria faberii); experiment: Test A preemergence; details: Setaria faberi, pre-emergence, 240 h, 0 to 100 scale where 0 is no effect and 100 is complete control, read-out: Foxtail, Giant plant response rating; for pest or weed control at 31 g/ha: 31 g ai/ha, Preemergence; for pest or weed control at 125 g/ha: 125 g ai/ha, preemergence, approx. 10 d
Summary of the method: as §1

SMILES	pest or weed control at 125 g/ha [1] [%]	pest or weed control at 31 g/ha [1] [%]	pest or weed control at 125 g/ha [2] [%]	pest or weed control at 31 g/ha [2] [%]	pest or weed control at 125 g/ha [3] [%]	pest or weed control at 31 g/ha [3] [%]	plant injury at 125 g/ha [4] [%]	pest or weed control at 125 g/ha [5] [%]	pest or weed control at 31 g/ha [5] [%]	pest or weed control at 125 g/ha [6] [%]	pest or weed control at 125 g/ha [7] [%]	plant injury at 125 g/ha [8] [%]	Corn plant response rating (crop injury, 0 = no effect, 100 = complete kill) at 31 g/ha [8] [%]	pest or weed control at 125 g/ha [9] [%]	pest or weed control at 125 g/ha [10] [%]	pest or weed control at 31 g/ha [10] [%]	pest or weed control at 250 g/ha [11] [%]	pest or weed control at 250 g/ha [12] [%]	pest or weed control at 250 g/ha [13] [%]	pest or weed control at 250 g/ha [14] [%]	other results
CN1C[C@H](c2ccc3ncccc3c2)[C@@H](C(=O)Nc2cccc(F)c2F)C1=O [Compound 1167]	50	0	0	0	20	0	50	0	0	0	0	0	0	0	30	0	0	0	0	0	plant injury at 31 g/ha ([4]; Postemergence, 31 g ai/ha, visual injury after approx. 10 d, 0 to 100 scale, 0 no effect, 100 complete control, read-out: Plant response rating, Wheat): 0%; pest or weed control at 31 g/ha ([6]; Postemergence, 31 g ai/ha, visual injury after approx. 10 d, 0 to 100 scale, 0 no effect, 100 complete control, read-out: Plant response rating, Ragweed): 0%; pest or weed control at 31 g/ha ([7]; Postemergence, 31 g ai/ha, visual injury after approx. 10 d, 0 to 100 scale, 0 no effect, 100 complete control, read-out: Plant response rating, Pigweed): 0%; pest or weed control at 31 g/ha ([9]; Postemergence, 31 g ai/ha, visual injury after approx. 10 d, 0 to 100 scale, 0 no effect, 100 complete control, read-out: Plant response rating, Ryegrass, Italian): 0%; pest or weed control at 31 g/ha [15]: 0%; pest or weed control at 125 g/ha [15]: 0%; pest or weed control at 31 g/ha [16]: 0%; pest or weed control at 125 g/ha [16]: 0%; pest or weed control at 31 g/ha [17]: 0%; pest or weed control at 125 g/ha [17]: 0%; pest or weed control at 31 g/ha [18]: 0%; pest or weed control at 125 g/ha [18]: 0%; pest or weed control at 31 g/ha [19]: 0%; pest or weed control at 125 g/ha [19]: 0%; pest or weed control at 31 g/ha [20]: 0%; pest or weed control at 125 g/ha [20]: 50%
CON1CC[C@H](c2cccc(C(F)(F)F)c2)[C@@H](C(=O)Nc2cccc(Cl)c2F)C1=O [Compound 1171]	70	20	0	0	0	0	0	0	0	0	0	0	0	0	60	30	0	30	0	0	pest or weed control at 31 g/ha [15]: 40%; pest or weed control at 125 g/ha [15]: 80%; pest or weed control at 31 g/ha [16]: 0%; pest or weed control at 125 g/ha [16]: 30%; pest or weed control at 31 g/ha [17]: 0%; pest or weed control at 125 g/ha [17]: 0%; pest or weed control at 31 g/ha [18]: 0%; pest or weed control at 125 g/ha [18]: 40%; pest or weed control at 31 g/ha [19]: 0%; pest or weed control at 125 g/ha [19]: 60%; pest or weed control at 31 g/ha [20]: 70%; pest or weed control at 125 g/ha [20]: 90%
